Laboratory results taken from the supplement of paper PMC3974653.
Counter-ions that a name gives are not always drawn.

Tested on: MTT (mouse pheochromocytoma)
Test: IC50 of cell viability (ATP content)
Settings: (24 or 48 h)
How it was run: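 MTT mouse pheochromocytoma cells in white 1536-well plates were treated for 24 or 48 hrs with library compounds at 8 final concentrations from 0.5 nM to 46 µM. ATP content was measured with CellTiter-Glo luminescence, using positive-control wells as 100% and DMSO wells as 0%. IC50 came from a four-parameter logistic fit.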

Row | SMILES | IC50 of cell viability [µM]
1 | CC1=C(/C=C/C(C)=C/C=C/C(C)=C/C=C/C=C(C)/C=C/C=C(C)/C=C/C2=C(C)C(=O)CCC2(C)C)C(C)(C)CCC1=O [CANTHAXANTHIN (euglenanone)] | > 46
2 | N=C1NCCC(C2NC(=O)/C(=C/NC(N)=O)NC(=O)C(CNC(=O)CC(N)CCCN)NC(=O)C(CO)NC(=O)C(N)CNC2=O)N1 (stereo not drawn) [CAPREOMYCIN SULFATE] | > 46
3 | C[C@H](CS)C(=O)N1CCC[C@H]1C(=O)O [CAPTOPRIL] | > 46
4 | CCN(CC)CCOC(=O)C1(c2ccccc2)CCCC1 [CARAMIPHEN EDISYLATE] | > 46
5 | COC(=O)N/N=C/c1c[n+]([O-])c2ccccc2[n+]1[O-] [CARBADOX] | > 46
6 | CC(C[N+](C)(C)C)OC(N)=O (stereo not drawn) [CARBAMYL-beta-METHYLCHOLINE] | > 46
7 | C[N+](C)(C)CCOC(N)=O [CARBAMYLCHOLINE] | > 46
8 | CN1C2=CC(=O)/C(=N\NC(N)=O)C=C2CC1S(=O)(=O)[O-] (stereo not drawn) [CARBAZOCHROME SODIUM SULFONATE] | > 46
9 | CC1(C)SC2C(NC(=O)C(C(=O)[O-])c3ccccc3)C(=O)N2C1C(=O)[O-].[Na+].[Na+] (stereo not drawn) [CARBENICILLIN DISODIUM] | > 46
10 | CCN(CC)CCOCCOC(=O)C1(c2ccccc2)CCCC1 [CARBETAPENTANE] | > 46
11 | C[C@@](Cc1ccc(O)c(O)c1)(NN)C(=O)O [CARBIDOPA] | > 46
12 | NC(CSCC(=O)O)C(=O)O (stereo not drawn) [CARBOCISTEINE] | > 46
13 | C=CC(=O)O [CARBOMER 940] | > 46
14 | CO[C@@H]1[C@@H](OC2OC(C)C(OC3CC(C)(O)C(OC(=O)CC(C)C)C(C)O3)C(N(C)C)C2O)[C@@H](CC=O)C[C@@H](C)C(=O)C=CC2O[C@H]2C[C@@H](C)OC(=O)C[C@H]1OC(C)=O (stereo partly drawn) [CARBOMYCIN] | > 46
15 | [NH2][Pt]1([NH2])[O]C(=O)C2(CCC2)C(=O)[O]1 [CARBOPLATIN] | > 46
16 | OC(=O)C1=CC=C2[NH]C=C(CCCCN3CC\C(=C/C3)C4=CC=CC=C4)C2=C1 [CARMOXIROLUM] | > 46
17 | CCC(=O)c1ccc2c(c1)N(CCCN1CCN(CCO)CC1)c1ccccc1S2 [CARPHENAZINE MALEATE] | > 46
18 | CC(C(=O)O)c1ccc2c(c1)[nH]c1ccc(Cl)cc12 (stereo not drawn) [CARPROFEN] | > 46
19 | COC(=O)CCC[N+](C)(C)C [CARPRONIUM CHLORIDE] | > 46
20 | NC(=O)OC[C@@H]1[C@H](NC(=O)/C(=N/OCC(=O)[O-])c2csc(N)n2)C(=O)N1S(=O)(=O)[O-] [CARUMONAM SODIUM] | > 46

Row | SMILES | IC50 of cell viability [µM]
21 | COc1ccccc1OCCNCC(O)COc1cccc2[nH]c3ccccc3c12.O=C(O)C(O)C(O)C(=O)O (stereo not drawn) [CARVEDILOL TARTRATE] | > 46
22 | N[S+](=O)([O-])c1ccc(C(=O)O)cc1 [CARZENIDUM] | > 46
23 | N[C@@H](C(=O)N[C@H]1[C@H]2SC\C(=C(/N2C1=O)C(O)=O)CSC3=C[NH]N=N3)C4=CC=C(O)C=C4 [CEFATRIZINE] | > 46
24 | C=CC1=C(C(=O)O)N2C(=O)C(NC(=O)/C(=N\O)c3csc(N)n3)C2SC1 (stereo not drawn) [CEFDINIR] | > 46
25 | CO/N=C(\C(=O)NC1C(=O)N2C(C(=O)OCOC(=O)C(C)(C)C)=C(/C=C\c3scnc3C)CSC12)c1csc(N)n1 (stereo not drawn) [CEFDITORIN PIVOXIL] | > 46
26 | CO/N=C(\C(=O)N[C@@H]1C(=O)N2C(C(=O)OCOC(=O)C(C)(C)C)=C(C)CS[C@H]12)c1csc(N)n1 [CEFETAMET PIVOXIL HCl] | > 46
27 | CO/N=C(/C(=O)N[C@@H]1C(=O)N2C(C(=O)O)=C(CSc3nnnn3C)CS[C@H]12)c1csc(N)n1 [CEFMENOXIME HYDROCHLORIDE] | > 46
28 | CO[C@@]1(NC(=O)CSC[C@@H](N)C(=O)O)C(=O)N2C(C(=O)O)=C(CSc3nnnn3C)CS[C@@H]21 [CEFMINOX SODIUM] | > 46
29 | O=C([O-])C1=C(CSc2nnnn2CS(=O)(=O)[O-])CS[C@@H]2[C@H](NC(=O)[C@H](O)c3ccccc3)C(=O)N12 [CEFONICID SODIUM] | > 46
30 | [Na+].CCN1CCN(C(=O)NC(C(=O)NC2C3SC\C(=C(/N3C2=O)C([O-])=O)CSC4=NN=N[N]4C)C5=CC=C(O)C=C5)C(=O)C1=O (stereo not drawn) [CEFOPERAZONE SODIUM] | > 46
31 | CO/N=C(/C(=O)N[C@@H]1C(=O)N2C(C(=O)O)=C(C[n+]3ccc(N)n3CCO)CS[C@H]12)c1csc(N)n1 [CEFOSELIS SULFATE] | > 46
32 | CO/N=C(/C(=O)N[C@@H]1C(=O)N2C(C(=O)[O-])=C(C[n+]3ccn4ncccc43)CS[C@H]12)c1nsc(N)n1 [CEFOZOPRAN HYDROCHLORIDE] | > 46
33 | Cc1cc(O)c(C(=O)N[C@@H](C(=O)N[C@@H]2C(=O)N3C(C(=O)O)=C(CSc4nnnn4C)CS[C@H]23)c2ccc(O)cc2)cn1 [CEFPIRAMIDE SODIUM] | > 46
34 | CO/N=C(\C(=O)N[C@@H]1C(=O)N2C(C(=O)[O-])=C(C[n+]3cccc4c3CCC4)CS[C@H]12)c1csc(N)n1 [CEFPIROME SULPHATE] | > 46
35 | COCC1=C(C(=O)OC(C)OC(=O)OC(C)C)N2C(=O)[C@@H](NC(=O)/C(=N/OC)c3csc(N)n3)[C@H]2SC1 (stereo partly drawn) [CEFPODOXIME PROXETIL] | > 46
36 | CO/N=C(\C(=O)N[C@@H]1C(=O)N2C(C(=O)[O-])=C(C[n+]3cccc4c3CCCC4)CS[C@H]12)c1csc(N)n1 [CEFQUINOME sulfate] | > 46
37 | CO/N=C(\C(=O)N[C@@H]1C(=O)N2C(C(=O)O)=C(Cn3nnc(C)n3)CS[C@H]12)c1csc(N)n1 [CEFTERAM] | > 46
38 | [O-]C(=O)C/1=C(/CS[C@@H]2[C@H](NC(=O)C[N]3C=NN=N3)C(=O)N12)CSC4=NN=CS4 [CEFTEZOLE SODIUM] | > 46
39 | Nc1nc(/C(=C/CC(=O)O)C(=O)NC2C(=O)N3C(C(=O)O)=CCSC23)cs1 (stereo not drawn) [CEFTIBUTEN] | > 46
40 | CO/N=C(/C(=O)N[C@@H]1C(=O)N2C(C(=O)O)=C(CSC(=O)c3ccco3)CSC12)c1csc(N)n1 (stereo partly drawn) [CEFTIOFUR CRYSTALLINE FREE ACID] | > 46

Row | SMILES | IC50 of cell viability [µM]
41 | CO/N=C(/C(=O)N[C@@H]1C(=O)N2C(C(=O)[O-])=CCS[C@H]12)c1csc(N)n1 [CEFTIZOXIME SODIUM] | > 46
42 | CO/N=C(/C(=O)NC1C(=O)N2C(C(=O)[O-])=C(CSc3nc(=O)c([O-])nn3C)CSC12)c1csc(N)n1.O.O.O.[Na+].[Na+] (stereo not drawn) [CEFTRIAXONE SODIUM TRIHYDRATE] | > 46
43 | CO/N=C(/C(=O)N[C@@H]1C(=O)N2C(C(=O)OC(C)OC(C)=O)=C(COC(N)=O)CS[C@H]12)c1ccco1 (stereo partly drawn) [CEFUROXIME AXETIL] | > 46
44 | CCN(CC)C(=O)Nc1ccc(OC[C@H](O)CNC(C)(C)C)c(C(C)=O)c1 [CELIPROLOL HYDROCHLORIDE] | > 46
45 | OCC1O[C@H](O[C@H]2C(O)C(O)C(O)O[C@@H]2CO)C(O)C(O)C1O (stereo partly drawn) [CELLOBIOSE (D[+])] | > 46
46 | [O-]C(=O)C/1=C(CSC2C(NC(=O)CC3=CC=CS3)C(=O)N12)\C[N+]4=CC=CC=C4 (stereo not drawn) [CEPHALORIDINE] | > 46
47 | COc1ccc2cc1Oc1ccc(cc1)CC1c3c(cc4c(c3Oc3cc5c(cc3OC)CCN(C)C5C2)OCO4)CCN1C (stereo not drawn) [CEPHARANTHINE] | > 46
48 | COCc1c(C(C)C)nc(C(C)C)c(/C=C/[C@@H](O)C[C@@H](O)CC(=O)[O-])c1-c1ccc(F)cc1 [CERIVASTATIN SODIUM] | > 46
49 | CCOC(=O)OCC/C(SC(=O)OCC)=C(\C)N(C=O)Cc1cnc(C)nc1N [CETOTIAMINE HYDROCHLORIDE] | > 46
50 | CCCCCCCCCCCCCCCCO [CETYL ALCOHOL] | > 46
51 | O=[S+]([O-])(O)c1cc(I)c(O)c2ncccc12 [CHINIOFONUM] | > 46
52 | CN(C)CC[C@@](O)(c1ccccc1)c1ccccc1Cl [CHLOPHEDIANOL HYDROCHLORIDE] | > 46
53 | OC(O)C(Cl)(Cl)Cl [CHLORAL HYDRATE] | > 46
54 | OC[C@@H](O)[C@H]1O[C@@H]2OC(C(Cl)(Cl)Cl)O[C@H]2[C@H]1O (stereo partly drawn) [CHLORALOSUM] | > 46
55 | OCC(O)[C@H]1O[C@@H]2O[C@H](C(Cl)(Cl)Cl)O[C@@H]2[C@H]1O (stereo partly drawn) [CHLORALOSUM] | > 46
56 | O=C(O)CCCc1ccc(N(CCCl)CCCl)cc1 [CHLORAMBUCIL] | > 46
57 | O=C(NC(CO)C(O)c1ccc([N+](=O)[O-])cc1)C(Cl)Cl (stereo not drawn) [CHLORAMPHENICOL] | > 46
58 | CNC1=C[N+]([O-])=C(c2ccccc2)c2cc(Cl)ccc2N1 [CHLORDIAZEPOXIDE] | > 46
